Results taken from ChEMBL document CHEMBL1137358, “Synthetic inhibitors of cytochrome P-450 2A6: inhibitory activity, difference spectra, mechanism of inhibition, and protein cocrystallization” (J Med Chem, 2006).

Tests used:
[1] = system: CYP2A6 over CYP2C9; assay: Selectivity for CYP2A6 over CYP2C9; conditions: human
[2] = target: Cytochrome P450 2D6 (Homo sapiens, UniProt P10635); assay: Inhibition of human CYP2D6
[3] = target: Cytochrome P450 2E1 (Homo sapiens, UniProt P05181); assay: Inhibition of human CYP2E1
[4] = target: Cytochrome P450 2C9 (Homo sapiens, UniProt P11712); assay: Inhibition of human CYP2C9
[5] = system: CYP2A6 over CYP3A4; assay: Selectivity for CYP2A6 over CYP3A4; conditions: human
[6] = species on record: Mus musculus; assay: (§1) Stability in mouse liver microsome; conditions: microsomes
[7] = target: T1, Cytochrome P450 2B6 (Homo sapiens, UniProt P20813); assay: Inhibition of human CYP2B6
T1 sequence (P20813 whole entry): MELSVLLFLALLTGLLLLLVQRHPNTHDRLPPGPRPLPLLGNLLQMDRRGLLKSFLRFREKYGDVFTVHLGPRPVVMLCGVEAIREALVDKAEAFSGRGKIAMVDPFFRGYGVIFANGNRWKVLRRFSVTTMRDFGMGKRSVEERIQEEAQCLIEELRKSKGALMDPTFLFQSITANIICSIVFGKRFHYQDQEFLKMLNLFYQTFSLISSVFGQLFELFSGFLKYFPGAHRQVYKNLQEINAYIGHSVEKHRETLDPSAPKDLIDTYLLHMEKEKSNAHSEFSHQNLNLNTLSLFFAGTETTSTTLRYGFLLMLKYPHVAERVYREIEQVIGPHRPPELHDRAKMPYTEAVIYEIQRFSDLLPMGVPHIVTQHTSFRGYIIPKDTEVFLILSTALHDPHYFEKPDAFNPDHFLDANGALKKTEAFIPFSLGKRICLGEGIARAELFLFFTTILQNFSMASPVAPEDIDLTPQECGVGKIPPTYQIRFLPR

[8] = system: CYP2A6 over CYP2E1; assay: Selectivity for CYP2A6 over CYP2E1; conditions: human
[9] = target: Cytochrome P450 2C19 (Homo sapiens, UniProt P33261); assay: Inhibition of human CYP2C19
[10] = (§2) Stability in human liver microsome
[11] = system: CYP2A6 over CYP2C19; assay: Selectivity for CYP2A6 over CYP2C19; conditions: human
[12] = target: T2, Cytochrome P450 2A6 (Homo sapiens, UniProt P11509); assay: Inhibition of human CYP2A6
T2 sequence (P11509 whole entry): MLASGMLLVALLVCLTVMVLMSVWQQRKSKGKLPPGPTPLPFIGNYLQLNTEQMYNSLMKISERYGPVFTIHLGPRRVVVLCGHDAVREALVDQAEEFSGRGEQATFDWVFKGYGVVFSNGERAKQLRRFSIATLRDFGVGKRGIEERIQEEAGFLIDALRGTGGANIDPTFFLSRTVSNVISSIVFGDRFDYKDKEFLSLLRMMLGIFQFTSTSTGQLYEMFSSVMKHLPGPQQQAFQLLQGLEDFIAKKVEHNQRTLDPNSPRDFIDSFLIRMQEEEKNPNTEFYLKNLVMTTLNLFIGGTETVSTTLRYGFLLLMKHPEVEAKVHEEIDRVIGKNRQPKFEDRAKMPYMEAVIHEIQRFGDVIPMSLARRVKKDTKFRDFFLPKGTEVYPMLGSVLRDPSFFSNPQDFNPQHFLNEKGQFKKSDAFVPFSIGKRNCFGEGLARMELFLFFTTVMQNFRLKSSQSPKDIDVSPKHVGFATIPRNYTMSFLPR

[13] = system: CYP2A6 over CYP2D6; assay: Selectivity for CYP2A6 over CYP2D6; conditions: human
[14] = target: Cytochrome P450 3A4 (Homo sapiens, UniProt P08684); assay: Inhibition of human CYP3A4
[15] = system: CYP2A6 over CYP2B6; assay: Selectivity for CYP2A6 over CYP2B6
[16] = as §1
[17] = system: Liver microsomes; assay: as §2; conditions: microsomes
[18] = target: T2, Cytochrome P450 2A6; assay: Displacement of coumarin from CYP2A6 at 100 uM; assay type: ADME

Chain of Cytochrome P450 3A4 (P08684 whole entry): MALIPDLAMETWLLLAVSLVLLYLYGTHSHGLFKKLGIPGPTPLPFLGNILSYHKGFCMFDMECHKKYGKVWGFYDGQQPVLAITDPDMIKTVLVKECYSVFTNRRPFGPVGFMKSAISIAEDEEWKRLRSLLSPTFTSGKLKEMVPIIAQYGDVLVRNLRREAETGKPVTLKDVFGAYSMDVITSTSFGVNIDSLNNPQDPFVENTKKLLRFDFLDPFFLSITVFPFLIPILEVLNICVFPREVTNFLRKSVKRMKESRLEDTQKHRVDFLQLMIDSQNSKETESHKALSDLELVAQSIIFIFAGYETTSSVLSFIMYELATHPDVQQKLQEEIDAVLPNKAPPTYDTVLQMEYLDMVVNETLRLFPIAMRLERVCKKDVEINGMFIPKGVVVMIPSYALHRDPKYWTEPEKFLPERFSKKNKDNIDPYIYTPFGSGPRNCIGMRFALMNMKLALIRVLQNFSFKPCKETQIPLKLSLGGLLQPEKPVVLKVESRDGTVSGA
Chain of Cytochrome P450 2E1 (P05181 whole entry): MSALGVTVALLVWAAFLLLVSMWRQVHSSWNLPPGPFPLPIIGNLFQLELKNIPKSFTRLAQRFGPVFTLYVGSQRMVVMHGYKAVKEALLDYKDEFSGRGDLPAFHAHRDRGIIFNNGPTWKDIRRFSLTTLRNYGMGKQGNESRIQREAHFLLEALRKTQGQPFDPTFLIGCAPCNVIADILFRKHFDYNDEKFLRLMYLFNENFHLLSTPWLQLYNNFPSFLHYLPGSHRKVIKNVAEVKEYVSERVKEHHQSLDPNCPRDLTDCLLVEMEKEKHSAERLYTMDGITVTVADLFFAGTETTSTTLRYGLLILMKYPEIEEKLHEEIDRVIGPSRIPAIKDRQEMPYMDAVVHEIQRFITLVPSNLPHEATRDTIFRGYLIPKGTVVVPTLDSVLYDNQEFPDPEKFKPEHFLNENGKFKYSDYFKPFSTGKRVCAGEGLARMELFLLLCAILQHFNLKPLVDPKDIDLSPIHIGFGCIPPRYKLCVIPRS
Chain of Cytochrome P450 2C9 (P11712 whole entry): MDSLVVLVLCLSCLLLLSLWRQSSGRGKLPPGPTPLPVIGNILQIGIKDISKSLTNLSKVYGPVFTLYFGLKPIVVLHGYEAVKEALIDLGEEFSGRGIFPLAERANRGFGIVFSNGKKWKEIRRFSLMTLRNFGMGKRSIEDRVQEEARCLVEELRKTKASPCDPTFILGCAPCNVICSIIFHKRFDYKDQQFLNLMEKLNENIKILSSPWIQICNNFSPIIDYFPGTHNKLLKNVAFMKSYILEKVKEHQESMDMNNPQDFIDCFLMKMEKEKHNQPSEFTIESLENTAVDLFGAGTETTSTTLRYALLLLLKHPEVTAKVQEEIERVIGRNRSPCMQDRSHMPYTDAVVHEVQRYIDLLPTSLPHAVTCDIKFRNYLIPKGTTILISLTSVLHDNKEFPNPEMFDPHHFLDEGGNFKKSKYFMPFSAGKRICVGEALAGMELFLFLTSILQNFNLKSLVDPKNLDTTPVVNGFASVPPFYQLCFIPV
Chain of Cytochrome P450 2C19 (P33261 whole entry): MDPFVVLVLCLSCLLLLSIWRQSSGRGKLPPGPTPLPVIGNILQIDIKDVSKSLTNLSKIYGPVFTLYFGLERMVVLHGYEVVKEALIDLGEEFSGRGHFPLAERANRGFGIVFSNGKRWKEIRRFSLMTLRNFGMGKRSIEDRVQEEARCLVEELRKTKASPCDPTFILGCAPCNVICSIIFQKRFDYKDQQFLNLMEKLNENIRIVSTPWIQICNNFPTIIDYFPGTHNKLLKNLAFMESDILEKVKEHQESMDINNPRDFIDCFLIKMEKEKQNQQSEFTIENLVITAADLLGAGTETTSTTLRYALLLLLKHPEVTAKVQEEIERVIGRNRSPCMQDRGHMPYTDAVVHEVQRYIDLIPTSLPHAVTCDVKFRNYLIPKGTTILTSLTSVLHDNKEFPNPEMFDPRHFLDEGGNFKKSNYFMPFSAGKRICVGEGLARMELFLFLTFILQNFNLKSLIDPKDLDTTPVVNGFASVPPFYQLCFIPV
Chain of Cytochrome P450 2D6 (P10635 whole entry): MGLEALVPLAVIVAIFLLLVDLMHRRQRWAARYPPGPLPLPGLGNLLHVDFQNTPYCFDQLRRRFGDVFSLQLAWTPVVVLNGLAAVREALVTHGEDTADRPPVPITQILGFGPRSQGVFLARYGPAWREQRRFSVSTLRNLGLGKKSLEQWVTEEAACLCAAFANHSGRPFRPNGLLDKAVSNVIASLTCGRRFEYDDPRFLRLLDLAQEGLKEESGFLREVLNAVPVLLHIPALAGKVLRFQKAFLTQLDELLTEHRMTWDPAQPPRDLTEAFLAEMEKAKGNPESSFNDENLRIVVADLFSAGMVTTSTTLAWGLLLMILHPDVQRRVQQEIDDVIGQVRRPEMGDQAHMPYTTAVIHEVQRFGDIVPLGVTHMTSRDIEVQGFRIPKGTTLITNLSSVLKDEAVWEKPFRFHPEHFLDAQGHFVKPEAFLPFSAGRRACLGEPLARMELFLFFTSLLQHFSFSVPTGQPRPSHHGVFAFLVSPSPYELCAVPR

| SMILES | selectivity ratio [1] | Ki [2] | Ki [3] | Ki [4] | selectivity ratio [5] | Stability [6] | Ki [7] | selectivity ratio [8] | Ki [9] | half-life ([10]; liver microsomes) | selectivity ratio [11] | Ki [12] | selectivity ratio [13] | Ki [14] | selectivity ratio [15] | half-life ([16]; liver microsomes) | Stability [17] | further results |
| --- | --- | --- | --- | --- | --- | --- | --- | --- | --- | --- | --- | --- | --- | --- | --- | --- | --- | --- |
| CNCc1ccc(-c2cccnc2)o1 | 48 | 45.3 µM | > 400 µM | 38.1 µM | > 250 | Stable | 179 µM | > 250 | 15.3 µM | 1.1 h | 19 | 0.8 µM | 57 | > 400 µM | – | – | – | – |
| Cc1ccsc1-c1ccc(F)nc1 | > 310 | > 400 µM | 184 µM | > 400 µM | 5.9 | Stable | 5.9 µM | 285 | 21 µM | 1.4 h | 32 | 0.6 µM | > 310 | 19.6 µM | 9.1 | – | – | – |
| Cc1cscc1-c1cccnc1 | – | 96.5 µM | 3.1 µM | 61.5 µM | – | – | 3.1 µM | – | 12.5 µM | – | – | 0.9 µM | – | < 25 µM | – | 0.783 h | – | T1/2 [17]: 0.533 h |
| CN(C)CC#Cc1cccnc1 | > 3 | > 400 µM | > 400 µM | > 400 µM | > 3 | Stable | 192 µM | > 3 | > 400 µM | – | > 3 | 67.5 µM | > 3 | > 400 µM | 2.8 | – | Stable | – |
| SCc1ccc(-c2cccnc2)o1 | – | 0.7 µM | 0.05 µM | 0.4 µM | > 4.1 | – | 1.1 µM | < 0.1 | 0.2 µM | – | < 0.3 | < 0.8 µM | < 0.9 | 3.1 µM | > 1.5 | – | – | Activity [18]: Active; half-life ([16]; microsomes): 1.75 h; half-life ([10]; microsomes): 1.98 h |
| c1cncc(-c2ccc(C3SCCS3)o2)c1 | 0.1 | 38.4 µM | 0.6 µM | 1.3 µM | 0.1 | – | 5.3 µM | 0.04 | 0.7 µM | 1.53 h | 0.1 | 13.9 µM | 2.8 | 1.1 µM | 0.4 | 0.4 h | – | Activity [18]: Active |
| Cn1cnc(-c2cccnc2)c1 | – | 102 µM | 2 µM | 39.7 µM | – | – | 73 µM | 5 | 61 µM | – | – | 0.4 µM | – | 131 µM | – | 8.02 h | Stable | – |
| c1cncc(-c2ccsc2)c1 | 69 | 124 µM | > 400 µM | 48.2 µM | 40 | Stable | 30 µM | > 286 | 55.6 µM | 4.52 h | 81 | 0.7 µM | > 286 | 28 µM | 42 | – | – | – |
| CN(C)Cc1ccc(-c2cccnc2)s1 | 1.5 | 14.4 µM | > 400 µM | 103 µM | 1.6 | – | > 400 µM | > 3 | 53 µM | – | 0.8 | 66.5 µM | 0.2 | 110 µM | > 3 | 5.72 h | Stable | – |
| Cc1nccn1-c1cccnc1 | – | – | – | – | – | Stable | – | – | – | 2.22 h | – | – | – | – | – | – | – | – |
| CNCc1ccc(-c2cccnc2)s1 | – | 56.5 µM | > 400 µM | 33.9 µM | – | Stable | > 400 µM | – | 29.9 µM | 1.6 h | – | 0.6 µM | – | > 400 µM | – | – | – | – |
| NCCCc1cccnc1 | > 30 | > 400 µM | > 400 µM | > 400 µM | > 400 | Stable | > 400 µM | > 30 | > 400 µM | – | > 30 | 6.6 µM | > 30 | > 400 µM | > 30 | – | Stable | – |
| CC(=O)SCc1ccc(-c2cccnc2)o1 | 3.4 | 45.4 µM | 0.2 µM | 2.9 µM | 1.7 | – | 0.9 µM | 0.3 | 3.9 µM | 0.5 h | 4.6 | 0.8 µM | 53 | 1.5 µM | 1 | 0.3 h | – | Activity [18]: Not Active |
